# Results taken from patent US6162799A, “Pesticidal compounds” (BTG International Limited, priority 1995, dated 2000).
# Assays:
# Tetranychus = conditions: Tabelle A of EP 0300218 A1; cited from earlier work
# acarids and fungi = conditions: cited from earlier work
# Aphis gossypiae = assay: Aphicidal activity, aphid-dip; assay type: in vivo; conditions: strain 81-171B, read-out: Aphid-dip result, % kill A.G. 81-171B
# Procedure: (§1) Activity against resistant (R) and susceptible (S) strains of aphid (Myzus persicae) and Aphis gossypiae was assessed using the following two methods.
# (§2) Entrapment rings of fluon were painted halfway up the inside of 4 cm lengths of glass tubing (1.5 cm diameter), and squares of insect-proof gauze were attached to one end of each tube by elastic bands. Fifteen apterous adults were then gently transferred into the tubes using a sable-hair brush, and the tube sealed with a second gauze square.
# (§3) Tubes containing aphids were dipped into insecticide solutions for 10 seconds, dried on blotting paper, and then inverted and tapped to cause treated aphids to fall to the unimmersed end of each tube. Handling mortality (usually zero or very slight) was scored after 1 hour, when aphids were transferred onto chinese cabbage leaf-discs (35 mm diameter) on an agar bed (25 mm in depth) in disposible plastic containers (30 mm high) and confined by applying a ring of fluon to the exposed lip of the container. Containers were stored upright, without lids, in a constant environment facility maintained at 25° C. under continuous room lighting. Mortality was assessed at 24, 48 and 72 hours. Two replicates of 15 aphids each were used at each dose rate and 5 or 6 dose rates were used per compound under test.
# (§4) The values given are % mortality corrected for control data. The control comprised the test solution without active ingredient.
# Phaedon cochleariae Fab = assay: Topical test on mustard beetles (PC); assay type: in vivo; conditions: for PC (LD50): mustard beetles, topical, 48 h
# Procedure: (§5) Pesticidal activity was assessed against houseflies, mustard beetles, mites and whitefly using the following methods.
# Mustard beetles (PC) (Phaedon cochleariae Fab)
# A one microliter drop of an acetone solution of the test compound was applied ventrally to adult mustard beetles using a micro drop applicator. The treated insects were maintained for 48 hours after which time kill was assessed. Two replicates each of 20 to 25 mustard beetles were used at each dose level and 5 dose levels were treated comparably. LD50 values were calculated as for houseflies.
# (§6) The values given are LD50 (μg/insect) or LC50 (ppm solution of test compound) unless otherwise specified.
# Musca domestica = assay: Topical test on houseflies (MD); assay type: in vivo; conditions: for MD (LD50): houseflies, topical on thorax, kill assessed 24 and 48 h
# Procedure: as §5
# Houseflies (MD) (Musca domestica)
# Female flies were treated on the thorax with a one microliter drop of test compound dissolved in acetone. Two replicates of 15 flies were used at each dose rate and 6 dose rates were used per compound under test. After treatment, the flies were maintained at a temperature of 20°±1° C. and kill was assessed 24 and 48 hours after treatment. LD50 values were calculated in micrograms of test compound per fly (see Sawicki et al., Bulletin of the World Health Organisation, 35, 893 (1966) and Sawicki et al., Entomologia and Exp. Appli 10, 253, (1967).
# as §6
# Tetranychus urticae = assay: Immersion test on mites (TU), susceptible strain GSS; assay type: in vivo; conditions: 72 h, read-out: TU (GSS) (LC50)
# Procedure: as §5
# Mites (TU) (Tetranychus urticae)
# 25 adult female mites were immersed in 35 μl of a solution of the test compound in a 1:4 acetone-water mixture for 30 seconds. The treated insects were maintained at 21°±2° C. and kill was assessed 72 hours after treatment. […] Three replicates of 25 mites each were used at each dose rate and 5 or 6 dose rates were used per compound under test. LC50 values were calculated in ppm of the solution of the test compound per insect. The test was carried out using a susceptible strain of mites (GSS) supplied by Schering, AG, Berlin.
# as §6
# Bemisia tabaci = assay: Film/vial test on whitefly (BT), susceptible strain SUD-S; assay type: in vivo; conditions: 48 h, read-out: BT (SUD-S) (LC50)
# Procedure: as §5
# Whitefly (BT) (Bemisia tabaci)
# Acetone solutions (0.100 ml) of the test compounds were placed in 10 ml glass vials and evaporated with rotation to deposit a film of the compound. Thirty adult whiteflies were placed inside the vial, then after 60 minutes, the treated insects were transferred onto untreated cotton leaf discs which were kept moist on a bed of agar gel. The temperature was maintained at 25° C. and mortality assessed after 48 hours. Three replicates were used at each of 5 to 7 dose levels per compound. LC50 values were calculated by using a computer software package ("Polo-PC" available from LeOra Software, Berkeley, Calif.). (See M. R. Cahill and B. Hackett in Proceedings Brighton Crop Protection Conference, 1992). The test was carried out using a susceptible strain of whitefly (SUD-S) which was collected in Sudan in 1978 from cotton.
# as §6
# Myzus persicae [1] = assay: Aphicidal activity, topical application; assay type: in vivo; conditions: susceptible strain USIL, 100 ppm, 72 h, read-out: Topical aphid results, % kill M.P. USIL
# Procedure: as §1
# (§7) Batches of 10-15 apterous adults were removed from stock cultures and placed on leaf discs (35 mm in diameter) cut from chinese cabbage and held on an agar bed (25 mm deep) in disposable plastic containers (30 mm high). Using a Burkhard micro-applicator aphids were dosed individually with a 0.25 μm droplet of chemical diluted to the required concentration in acetone. control insects were dosed with acetone only. Mortality and other effects were scored at 24 hour intervals up to and including 72 hour post-treatment, the end-point to which the results relate.
# (§8) The test was carried out using a susceptible strain of aphids (US1L) collected in the field in East Anglia, UK and an extremely resistant strain of aphids (794Jz) (R^3 esterase, sensitive ACHE) collected from glasshouses in the UK.
# as §4
# Myzus persicae [2] = assay: Aphicidal activity, aphid-dip; assay type: in vivo
# Procedure: as §1, §2, §3, §8, §4
# [3] = test system: Pyricularia oryzae (=Magnaporthe grisea); assay type: cell-based; conditions: P. oryzae, 100 mg 1^-1, 7 days
# Aspergillus niger = assay type: cell-based; conditions: A. niger
# Rhizoctonia solani = assay type: cell-based; conditions: R. solani
# Myzus = assay: Aphicidal activity of comparative compounds (topical or dip not stated); assay type: in vivo; conditions: prior art t-butyl compound; in the tests set out above; concentration not given
# Procedure: as §1
# as §7, with “relate. […]” for “relate.”
# as §3, with “Containers were stored upright, without lids, in a constant environment facility maintained at 25° C. under continuous room lighting.” left out, “Two replicates of 15 aphids each were used at each dose rate and 5 or 6 dose rates were used per compound under test.” left out
# [4] = resistant strain 794JZ, read-out: Aphid-dip result, % kill M.P. 794JZ
# [5] = susceptible strain USIL, read-out: Aphid-dip result, % kill M.P. USIL
# [6] = 100 mg 1^-1, 4 days at 20-25° C.
# [7] = prior art t-butyl compound, tested by the present inventors
SMILES,mortality at 100 ppm (Aphis gossypiae) [%],PC (LD50) (Phaedon cochleariae Fab) [μg/insect],MD (LD50) (Musca domestica) [μg/insect],LC50 (Tetranychus urticae) [µg/mL],LC50 (Bemisia tabaci) [µg/mL],mortality at 100 ppm (Myzus persicae [1]) [%],mortality at 100 ppm (Myzus persicae [2]; [4]) [%],mortality at 100 ppm (Myzus persicae [2]; [5]) [%],also measured
C[Si](C)(C)C1CCC(C2=C(O)C(=O)c3ccccc3C2=O)CC1 (stereo not shown) [compound of Example 5 (DE 3801743 A1)],,,,,,,,,activity against Tetranychus relative to tertiary butyl compound (Tetranychus): less than the corresponding tertiary butyl compound; pesticidal activity relative to other disclosed compounds (acarids and fungi; DE 3801743 A1): not the most pesticidally active compound; acaricidal and fungicidal activity (acarids and fungi; data in DE 3801743 A1): some acaricidal and fungicidal activity
"C[Si](C)(C)CCCCCCCCCC1=C(O)C(=O)c2ccccc2C1=O [Example 12, 2-hydroxy-3-(9-trimethylsilylnonyl)-1,4-naphthoquinone]",93,0.13,2.8,0.9,8.6,89,61,100,
"C[Si](C)(C)CCC1=C(O)C(=O)c2ccccc2C1=O [Example 2, 2-hydroxy-3-(2'-trimethylsilylethyl)-1,4-naphthoquinone]",63,0.45,0.69,38,2.6,45,54,77,Activity at 100 mg 1^-1 (% inhibition of growth in colony diameter) [3]: 67%; Activity at 100 mg 1^-1 (% inhibition of growth in colony diameter) (Aspergillus niger; [6]): 18%; Activity at 100 mg 1^-1 (% inhibition of growth in colony diameter) (Rhizoctonia solani; [6]): 35%
"COC(=O)Nc1nc2ccccc2[nH]1 [Carbendazim, carbendazim]",,,,,,,,,Activity at 1 mg 1^-1 (% inhibition of growth in colony diameter) (Rhizoctonia solani; 1 mg 1^-1): 3.3%; Activity at 5 mg 1^-1 (% inhibition of growth in colony diameter) (Rhizoctonia solani; 5 mg 1^-1): 82.4%
"CC(C)(C)C1CCC(C2=C(O)C(=O)c3ccccc3C2=O)CC1 (stereo not shown) [t-butyl compoud, reference compound]",,,,,,,,,LD50 against Phaedon (Phaedon cochleariae Fab; [7]): 0.53 μg/insect; LD50 against Musca (Musca domestica; [7]): 16 μg/insect; kill against Myzus (Myzus): 19%
"CCCN(CCOc1c(Cl)cc(Cl)cc1Cl)C(=O)n1ccnc1 [Prochloraz, prochloraz, reference compound]",,,,,,,,,Activity at 1 mg 1^-1 (% inhibition of growth in colony diameter) (Aspergillus niger; 1 mg 1^-1): 97.8%
